The results in this text go back to patent publication US11046716B2, “Beta-lactamase inhibitors” (priority 2015, dated 2021).

One assay addresses T1, SHV-5 (Klebsiella pneumoniae, UniProt P0A3M1).
T1 construct: made in house; host or cells: E. coli BL21(DE3)
Briefly: β-lactamase enzyme inhibition assay, SHV-5 (cefotaxime substrate). The assay is classed as biochemical. The gist of the method:
(§1)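 Compounds are mixed with purified, untagged recombinant β-lactamase and held 15 min at 37 °C. Substrate is then added: nitrocefin (100 μM final) for OXA-1, imipenem for KPC-2, cefotaxime for SHV-5. Absorbance is followed immediately, and percent inhibition per concentration gives the IC50.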

Another assay has as its target T2, VIM-2 (Escherichia coli, UniProt Q5U7L7).
T2 construct: made in house; host or cells: E. coli BL21(DE3)
The assay is described as follows: β-lactamase enzyme inhibition assay, VIM-2 (nitrocefin substrate). The assay is classed as biochemical. The note with it: Class B; nitrocefin substrate, 486 nm; read-out: VIM-2. The gist of the method:
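Enzyme + inhibitor, 37 °C, 15 min; nitrocefin 100 μM final; A486 read for 10 min. % inhibition vs no-inhibitor wells per concentration; IC50 = concentration halving initial hydrolysis rate.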

Assay [1] relates to K. pneumoniae expressing the Class A carbapenemase KPC-2. Briefly: Broth microdilution MIC assay with meropenem, K. pneumoniae KPC-2. The settings on record: Fixed Mero (meropenem) 4 μg/mL; K. p. 156319 KPC-3. The assay is classed as cell-based. The gist of the method: (§2)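 CAMHB; cpd 2-fold serial dilution, 16–0.125 μg/mL final; β-lactam static 4 μg/ml; CLSI inoculation; 16–20 h, 37° C; MIC read by eye.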
(Broth dilution looks for growth in wells or tubes with falling amounts of substance.)

In assay [2] the test system is K. pneumoniae expressing the class A carbapenemase KPC-2 and the class B carbapenemase VIM-4. The assay is described as follows: Broth microdilution MIC assay with meropenem, K. pneumoniae KPC-2 and VIM-4. The assay is classed as cell-based. The note with it: Fixed Mero (meropenem) 4 μg/mL; K. p. A-1797 KPC-2 VIM-4. The gist of the method:
as §2

The test system of assay [3] is E. coli expressing the Class A Extended Spectrum Beta-Lactamase (ESBL) CTX-M-15. Briefly: Broth microdilution MIC assay with ceftazidime, E. coli CTX-M-15. The assay is classed as cell-based. The settings on record: Fixed CAZ (ceftazidime) 4 μg/mL; E. coli ESBL4 CTX-M-15. The essentials: as §2
The subject of assay [4] is K. pneumoniae producing the Class D carbapenemase OXA-48. The assay is described as follows: Broth microdilution MIC assay with meropenem, K. pneumoniae OXA-48. The assay is classed as cell-based. The note with it: Fixed Mero (meropenem) 4 μg/mL; K. p. 11978 OXA-48. The essentials:
as §2

For a further assay, the target named is OXA-48 (UniProt Q6XEC0). Briefly: β-lactamase enzyme inhibition assay, Class D oxacillinase. Format: biochemical. The settings on record: read-out: OXA-48.
The target of another assay is T3, KPC-2 (Klebsiella pneumoniae, UniProt Q9F663).
T3 construct: made in house; host or cells: E. coli BL21(DE3)
T3 sequence (Q9F663 25-293, looked up): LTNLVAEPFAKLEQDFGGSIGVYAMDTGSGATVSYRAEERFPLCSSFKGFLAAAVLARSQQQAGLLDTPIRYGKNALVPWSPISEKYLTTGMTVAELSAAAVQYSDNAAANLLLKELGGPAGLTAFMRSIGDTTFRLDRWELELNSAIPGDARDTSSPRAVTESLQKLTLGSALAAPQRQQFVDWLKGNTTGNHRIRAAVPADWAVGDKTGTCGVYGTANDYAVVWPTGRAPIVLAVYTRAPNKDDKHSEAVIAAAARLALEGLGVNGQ
The assay is described as follows: β-lactamase enzyme inhibition assay, KPC-2 (imipenem substrate). Format: biochemical. The note with it: Class A; imipenem substrate, 300 nm; read-out: KPC-2. The gist of the method: as §1

In assay [5] the test system is E. cloacae expressing the Class C P99. The assay is described as follows: Broth microdilution MIC assay with ceftazidime, E. cloacae P99. The assay is classed as cell-based. The note with it: Fixed CAZ (ceftazidime) 4 μg/mL; E. cl. 144200 p99 AmpC. The gist of the method: as §2
Assay [6] has as its system P. aeruginosa expressing the Class B carbapenemase VIM-2. The assay is described as follows: Broth microdilution MIC assay with meropenem, P. aeruginosa VIM-2. The assay is classed as cell-based. The settings on record: Fixed Mero (meropenem) 4 μg/mL; P. aerug. 2775 VIM-2. The gist of the method: as §2
The next assay has as its target T4, AmpC (Enterobacter cloacae, UniProt P05364).
T4 construct: made in house; host or cells: E. coli BL21(DE3)
Briefly: β-lactamase enzyme inhibition assay, p99 AmpC (nitrocefin substrate). The assay is classed as biochemical. The essentials: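 Compounds are mixed with purified, untagged recombinant β-lactamase and held 15 min at 37 °C. Substrate is then added. Absorbance is followed immediately, and percent inhibition per concentration gives the IC50.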

T4 sequence (P05364 21-381): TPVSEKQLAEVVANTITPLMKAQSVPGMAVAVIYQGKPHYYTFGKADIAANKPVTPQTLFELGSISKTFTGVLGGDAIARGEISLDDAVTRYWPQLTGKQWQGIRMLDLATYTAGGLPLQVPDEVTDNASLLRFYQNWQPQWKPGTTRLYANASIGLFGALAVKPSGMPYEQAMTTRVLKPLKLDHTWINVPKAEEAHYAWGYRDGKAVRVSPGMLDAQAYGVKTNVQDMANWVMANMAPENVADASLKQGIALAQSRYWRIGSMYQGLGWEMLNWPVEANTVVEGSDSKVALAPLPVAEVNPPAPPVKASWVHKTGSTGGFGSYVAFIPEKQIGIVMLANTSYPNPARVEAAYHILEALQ
T1 sequence (P0A3M1 22-286): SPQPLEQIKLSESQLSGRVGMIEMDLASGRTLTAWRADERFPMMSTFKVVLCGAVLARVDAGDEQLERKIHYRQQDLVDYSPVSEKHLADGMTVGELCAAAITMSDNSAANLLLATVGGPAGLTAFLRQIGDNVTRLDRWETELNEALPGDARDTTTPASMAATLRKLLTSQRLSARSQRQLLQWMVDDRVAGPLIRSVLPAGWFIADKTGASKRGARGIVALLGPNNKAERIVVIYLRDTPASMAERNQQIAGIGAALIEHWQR

Turning to `CNCc1nnn(CC(=O)N[C@H]2Cc3cccc(C(=O)O)c3OB2O)c1CO` [Example 14, (R)-2-hydroxy-3-(2-(5-(hydroxymethyl)-4-((methylamino)methyl)-1H-1,2,3-triazol-1-yl)acetamido)-3,4-dihydro-2H-benzo[e][1,2]oxaborinine-8-carboxylic acid], the IC50 at SHV-5 is 100 to 1000 nM; on VIM-2, 100 to 1000 nM; on OXA-48 it was 100 to 1000 nM; on KPC-2, 100 to 1000 nM; at AmpC, < 100 nM. Also, the “MIC (μg/mL) of Exemplary Compounds in presence of fixed β-lactams: K. p. 156319 KPC-3” value (“MIC (μg/mL) … K. p. 156319 KPC-3” for short) in assay [1] is “B (B represents an MIC between 1 and 16 μg/mL inclusive)”. Further, the “MIC (μg/mL) of Exemplary Compounds in presence of fixed β-lactams: K. p. A-1797 KPC-2 VIM-4” value (“MIC (μg/mL) … K. p. A-1797 KPC-2 VIM-4” for short) in [2] is “B (B represents an MIC between 1 and 16 μg/mL inclusive)”. For the same compound, the “MIC (μg/mL) of Exemplary Compounds in presence of fixed β-lactams: E. coli ESBL4 CTX-M-15” value (shortened to “MIC (μg/mL) … E. coli ESBL4 CTX-M-15”) in assay [3] is “B (B represents an MIC between 1 and 16 μg/mL inclusive)”. Moreover, in assay [4], the “MIC (μg/mL) of Exemplary Compounds in presence of fixed β-lactams: K. p. 11978 OXA-48” value (from here on “MIC (μg/mL) … K. p. 11978 OXA-48”) was “B (B represents an MIC between 1 and 16 μg/mL inclusive)”. Also, the “MIC (μg/mL) of Exemplary Compounds in presence of fixed β-lactams: E. cl. 144200 p99 AmpC” value (“MIC (μg/mL) … E. cl. 144200 p99 AmpC” for short) in [5] is listed as “C (C represents an MIC of <1 μg/mL)”. For the same compound, the “MIC (μg/mL) of Exemplary Compounds in presence of fixed β-lactams: P. aerug. 2775 VIM-2” value (“MIC (μg/mL) … P. aerug. 2775 VIM-2” for short) in assay [6] is “B (B represents an MIC between 1 and 16 μg/mL inclusive)”.
Regarding `N=C(N)NCCn1nnc(CC(=O)N[C@H]2Cc3cccc(C(=O)O)c3OB2O)n1` [Example 48, (R)-3-(2-(2-(2-guanidinoethyl)-2H-tetrazol-5-yl)acetamido)-2-hydroxy-3,4-dihydro-2H-benzo[e][1,2]oxaborinine-8-carboxylic acid], the IC50 on SHV-5 was < 100 nM; at VIM-2, < 100 nM; at OXA-48, 1000 to 10000 nM; at KPC-2, < 100 nM; on AmpC, < 100 nM. The “MIC (μg/mL) … K. p. 156319 KPC-3” value in assay [1] was “B (B represents an MIC between 1 and 16 μg/mL inclusive)”. Also, in [2], the “MIC (μg/mL) … K. p. A-1797 KPC-2 VIM-4” value is “B (B represents an MIC between 1 and 16 μg/mL inclusive)”. Further, the “MIC (μg/mL) … E. coli ESBL4 CTX-M-15” value in [3] is listed as “C (C represents an MIC of <1 μg/mL)”. The “MIC (μg/mL) … K. p. 11978 OXA-48” value in assay [4] was “B (B represents an MIC between 1 and 16 μg/mL inclusive)”. Besides, in [5], the “MIC (μg/mL) … E. cl. 144200 p99 AmpC” value was “C (C represents an MIC of <1 μg/mL)”. Also, the “MIC (μg/mL) … P. aerug. 2775 VIM-2” value in assay [6] is “C (C represents an MIC of <1 μg/mL)”.
As to `O=C(Cn1cc(-c2cccs2)nn1)N[C@H]1Cc2cccc(C(=O)O)c2OB1O` [Example 28, (R)-2-hydroxy-3-(2-(4-(thiophen-2-yl)-1H-1,2,3-triazol-1-yl)acetamido)-3,4-dihydro-2H-benzo[e][1,2]oxaborinine-8-carboxylic acid], the IC50 at SHV-5 was < 100 nM; on VIM-2, 100 to 1000 nM; at OXA-48, 100 to 1000 nM; on KPC-2, < 100 nM; at AmpC it was < 100 nM. Further, in assay [1], the “MIC (μg/mL) … K. p. 156319 KPC-3” value was “B (B represents an MIC between 1 and 16 μg/mL inclusive)”. Moreover, the “MIC (μg/mL) … K. p. A-1797 KPC-2 VIM-4” value in assay [2] is “A (A represents an MIC>16 μg/mL)”. The “MIC (μg/mL) … E. coli ESBL4 CTX-M-15” value in [3] is “C (C represents an MIC of <1 μg/mL)”. The “MIC (μg/mL) … K. p. 11978 OXA-48” value in [4] was “B (B represents an MIC between 1 and 16 μg/mL inclusive)”. In addition, the “MIC (μg/mL) … E. cl. 144200 p99 AmpC” value in assay [5] is recorded as “C (C represents an MIC of <1 μg/mL)”. Besides, the “MIC (μg/mL) … P. aerug. 2775 VIM-2” value in assay [6] is “B (B represents an MIC between 1 and 16 μg/mL inclusive)”.
As for `O=C(Cn1cc(C2CNC2)nn1)N[C@H]1Cc2cccc(C(=O)O)c2OB1O` [Example 90, (R)-3-(2-(4-(azetidin-3-yl)-1H-1,2,3-triazol-1-yl)acetamido)-2-hydroxy-3,4-dihydro-2H-benzo[e][1,2]oxaborinine-8-carboxylic acid], the IC50 is 100 to 1000 nM against SHV-5; 100 to 1000 nM at VIM-2; 1000 to 10000 nM at OXA-48; < 100 nM on KPC-2; < 100 nM against AmpC. In [1], the “MIC (μg/mL) … K. p. 156319 KPC-3” value was “B (B represents an MIC between 1 and 16 μg/mL inclusive)”. For the same compound, the “MIC (μg/mL) … K. p. A-1797 KPC-2 VIM-4” value in [2] is “B (B represents an MIC between 1 and 16 μg/mL inclusive)”. Moreover, the “MIC (μg/mL) … E. coli ESBL4 CTX-M-15” value in assay [3] is “C (C represents an MIC of <1 μg/mL)”. In assay [4], the “MIC (μg/mL) … K. p. 11978 OXA-48” value is “B (B represents an MIC between 1 and 16 μg/mL inclusive)”. For the same compound, the “MIC (μg/mL) … E. cl. 144200 p99 AmpC” value in assay [5] is “C (C represents an MIC of <1 μg/mL)”. In assay [6], the “MIC (μg/mL) … P. aerug. 2775 VIM-2” value is reported as “C (C represents an MIC of <1 μg/mL)”.
